Reference: ChEMBL document CHEMBL5154747, “Discovery of new carbonic anhydrase IX inhibitors as anticancer agents by toning the hydrophobic and hydrophilic rims of the active site to encounter the dual-tail approach” (Eur J Med Chem, 2022)

The molecules below were run on UACC-257 (assay: Anticancer activity against human UACC-257 cells assessed as cell growth inhibition at 10 uM incubated for 48 hrs by SRB assay relative to control). Settings: read-out: GI.
Format: functional
`NNc1nc(Nc2ccccc2)nc(Nc2ccc(S(N)(=O)=O)cc2)n1` was tested, and the inhibition of growth at 10 µM was < 10%.
With `COc1ccc(/C=N/Nc2nc(Nc3ccccc3)nc(Nc3ccc(S(N)(=O)=O)cc3)n2)cc1` the inhibition of growth at 10 µM was < 10%.
For `NS(=O)(=O)c1ccc(Nc2nc(N/N=C/c3ccc(F)cc3)nc(Nc3ccccc3)n2)cc1`, the inhibition of growth at 10 µM was 52%.

What follows are molecules tested on BT-549 (assay: Anticancer activity against human BT-549 cells assessed as cell growth inhibition at 10 uM incubated for 48 hrs by SRB assay relative to control). Settings: read-out: GI.
Format: functional
In the case of `NNc1nc(Nc2ccccc2)nc(Nc2ccc(S(N)(=O)=O)cc2)n1`, the inhibition of growth at 10 µM is reported as < 10%.
`COc1ccc(/C=N/Nc2nc(Nc3ccccc3)nc(Nc3ccc(S(N)(=O)=O)cc3)n2)cc1` was tested, and the inhibition of growth at 10 µM was 14%.
`NS(=O)(=O)c1ccc(Nc2nc(N/N=C/c3ccc(F)cc3)nc(Nc3ccccc3)n2)cc1` was tested, and the inhibition of growth at 10 µM was 32%.

What follows are molecules tested on TK-10 (assay: Anticancer activity against human TK-10 cells assessed as cell growth inhibition at 10 uM incubated for 48 hrs by SRB assay relative to control). Settings: read-out: GI.
Format: functional
`NNc1nc(Nc2ccccc2)nc(Nc2ccc(S(N)(=O)=O)cc2)n1` was tested, and the inhibition of growth at 10 µM was < 10%.
Work on `COc1ccc(/C=N/Nc2nc(Nc3ccccc3)nc(Nc3ccc(S(N)(=O)=O)cc3)n2)cc1` yielded an inhibition of growth at 10 µM of 20%.
`NS(=O)(=O)c1ccc(Nc2nc(N/N=C/c3ccc(F)cc3)nc(Nc3ccccc3)n2)cc1` showed an inhibition of growth at 10 µM of 98%.

These molecules were tested on NCI-H322M (assay: Anticancer activity against human NCI-H322M cells assessed as cell growth inhibition at 10 uM incubated for 48 hrs by SRB assay relative to control). Settings: read-out: GI.
Format: functional
`NNc1nc(Nc2ccccc2)nc(Nc2ccc(S(N)(=O)=O)cc2)n1` was tested, and the inhibition of growth at 10 µM was < 10%.
`COc1ccc(/C=N/Nc2nc(Nc3ccccc3)nc(Nc3ccc(S(N)(=O)=O)cc3)n2)cc1` showed an inhibition of growth at 10 µM of 15%.
For `NS(=O)(=O)c1ccc(Nc2nc(N/N=C/c3ccc(F)cc3)nc(Nc3ccccc3)n2)cc1`, the inhibition of growth at 10 µM was 41%.

What follows are molecules tested on PC-3 (assay: Anticancer activity against human PC-3 cells assessed as cell growth inhibition at 10 uM incubated for 48 hrs by SRB assay relative to control). Settings: read-out: GI.
Format: functional
For `NNc1nc(Nc2ccccc2)nc(Nc2ccc(S(N)(=O)=O)cc2)n1`, the inhibition of growth at 10 µM was < 10%.
Work on `COc1ccc(/C=N/Nc2nc(Nc3ccccc3)nc(Nc3ccc(S(N)(=O)=O)cc3)n2)cc1` yielded an inhibition of growth at 10 µM of 24%.
For `NS(=O)(=O)c1ccc(Nc2nc(N/N=C/c3ccc(F)cc3)nc(Nc3ccccc3)n2)cc1`, the inhibition of growth at 10 µM was 60%.

These molecules were tested on MCF7 (assay: Anticancer activity against human MCF7 cells assessed as cell growth inhibition at 10 uM incubated for 48 hrs by SRB assay relative to control). Settings: read-out: GI.
Format: functional
`NNc1nc(Nc2ccccc2)nc(Nc2ccc(S(N)(=O)=O)cc2)n1` was tested, and the inhibition of growth at 10 µM was < 10%.
`COc1ccc(/C=N/Nc2nc(Nc3ccccc3)nc(Nc3ccc(S(N)(=O)=O)cc3)n2)cc1` gave an inhibition of growth at 10 µM of 59%.
With `NS(=O)(=O)c1ccc(Nc2nc(N/N=C/c3ccc(F)cc3)nc(Nc3ccccc3)n2)cc1` the inhibition of growth at 10 µM was 71%.

The molecules below were run on SF-295 (assay: Anticancer activity against human SF-295 cells assessed as cell growth inhibition at 10 uM incubated for 48 hrs by SRB assay relative to control). Settings: read-out: GI.
Format: functional
In the case of `NNc1nc(Nc2ccccc2)nc(Nc2ccc(S(N)(=O)=O)cc2)n1`, the inhibition of growth at 10 µM is reported as < 10%.
`COc1ccc(/C=N/Nc2nc(Nc3ccccc3)nc(Nc3ccc(S(N)(=O)=O)cc3)n2)cc1` gave an inhibition of growth at 10 µM of 29%.
Work on `NS(=O)(=O)c1ccc(Nc2nc(N/N=C/c3ccc(F)cc3)nc(Nc3ccccc3)n2)cc1` yielded an inhibition of growth at 10 µM of 29%.

Each molecule was assayed on NCI/ADR-RES (assay: Anticancer activity against human NCI/ADR-RES cells assessed as cell growth inhibition at 10 uM incubated for 48 hrs by SRB assay relative to control). Settings: read-out: GI.
Format: functional
For `NNc1nc(Nc2ccccc2)nc(Nc2ccc(S(N)(=O)=O)cc2)n1`, the inhibition of growth at 10 µM was < 10%.
`COc1ccc(/C=N/Nc2nc(Nc3ccccc3)nc(Nc3ccc(S(N)(=O)=O)cc3)n2)cc1` was tested, and the inhibition of growth at 10 µM was < 10%.
`NS(=O)(=O)c1ccc(Nc2nc(N/N=C/c3ccc(F)cc3)nc(Nc3ccccc3)n2)cc1` was tested, and the inhibition of growth at 10 µM was < 10%.

The molecules below were run on MDA-MB-435 (assay: Anticancer activity against human MDA-MB-435 cells assessed as cell growth inhibition at 10 uM incubated for 48 hrs by SRB assay relative to control). Settings: read-out: GI.
Format: functional
For `NNc1nc(Nc2ccccc2)nc(Nc2ccc(S(N)(=O)=O)cc2)n1`, the inhibition of growth at 10 µM was < 10%.
`COc1ccc(/C=N/Nc2nc(Nc3ccccc3)nc(Nc3ccc(S(N)(=O)=O)cc3)n2)cc1` gave an inhibition of growth at 10 µM of 23%.
`NS(=O)(=O)c1ccc(Nc2nc(N/N=C/c3ccc(F)cc3)nc(Nc3ccccc3)n2)cc1` gave an inhibition of growth at 10 µM of 46%.

The molecules below were run on DU-145 (assay: Anticancer activity against human DU-145 cells assessed as cell growth inhibition at 10 uM incubated for 48 hrs by SRB assay relative to control). Settings: read-out: GI.
Format: functional
With `NNc1nc(Nc2ccccc2)nc(Nc2ccc(S(N)(=O)=O)cc2)n1` the inhibition of growth at 10 µM was < 10%.
`COc1ccc(/C=N/Nc2nc(Nc3ccccc3)nc(Nc3ccc(S(N)(=O)=O)cc3)n2)cc1` was tested, and the inhibition of growth at 10 µM was 34%.
For `NS(=O)(=O)c1ccc(Nc2nc(N/N=C/c3ccc(F)cc3)nc(Nc3ccccc3)n2)cc1`, the inhibition of growth at 10 µM was 68%.

The molecules below were run on A498 (assay: Anticancer activity against human A498 cells assessed as cell growth inhibition at 10 uM incubated for 48 hrs by SRB assay relative to control). Settings: read-out: GI.
Format: functional
In the case of `NNc1nc(Nc2ccccc2)nc(Nc2ccc(S(N)(=O)=O)cc2)n1`, the inhibition of growth at 10 µM is reported as < 10%.
In the case of `COc1ccc(/C=N/Nc2nc(Nc3ccccc3)nc(Nc3ccc(S(N)(=O)=O)cc3)n2)cc1`, the inhibition of growth at 10 µM is reported as 38%.

The molecules below were run on OVCAR-4 (assay: Anticancer activity against human OVCAR-4 cells assessed as cell growth inhibition at 10 uM incubated for 48 hrs by SRB assay relative to control). Settings: read-out: GI.
Format: functional
`NNc1nc(Nc2ccccc2)nc(Nc2ccc(S(N)(=O)=O)cc2)n1` was tested, and the inhibition of growth at 10 µM was < 10%.
Work on `COc1ccc(/C=N/Nc2nc(Nc3ccccc3)nc(Nc3ccc(S(N)(=O)=O)cc3)n2)cc1` yielded an inhibition of growth at 10 µM of 33%.
Molecule `NS(=O)(=O)c1ccc(Nc2nc(N/N=C/c3ccc(F)cc3)nc(Nc3ccccc3)n2)cc1` has an inhibition of growth at 10 µM of 44%.

Each molecule was assayed on SK-MEL-2 (assay: Anticancer activity against human SK-MEL-2 cells assessed as cell growth inhibition at 10 uM incubated for 48 hrs by SRB assay relative to control). Settings: read-out: GI.
Format: functional
For `NNc1nc(Nc2ccccc2)nc(Nc2ccc(S(N)(=O)=O)cc2)n1`, the inhibition of growth at 10 µM was < 10%.
`COc1ccc(/C=N/Nc2nc(Nc3ccccc3)nc(Nc3ccc(S(N)(=O)=O)cc3)n2)cc1` was tested, and the inhibition of growth at 10 µM was 31%.
Molecule `NS(=O)(=O)c1ccc(Nc2nc(N/N=C/c3ccc(F)cc3)nc(Nc3ccccc3)n2)cc1` has an inhibition of growth at 10 µM of 109%.

What follows are molecules tested on HOP-62 (assay: Anticancer activity against human HOP-62 cells assessed as cell growth inhibition at 10 uM incubated for 48 hrs by SRB assay relative to control). Settings: read-out: GI.
Format: functional
With `NNc1nc(Nc2ccccc2)nc(Nc2ccc(S(N)(=O)=O)cc2)n1` the inhibition of growth at 10 µM was < 10%.
`COc1ccc(/C=N/Nc2nc(Nc3ccccc3)nc(Nc3ccc(S(N)(=O)=O)cc3)n2)cc1` showed an inhibition of growth at 10 µM of 19%.
For `NS(=O)(=O)c1ccc(Nc2nc(N/N=C/c3ccc(F)cc3)nc(Nc3ccccc3)n2)cc1`, the inhibition of growth at 10 µM was 82%.

What follows are molecules tested on NCI-H226 (assay: Anticancer activity against human NCI-H226 cells assessed as cell growth inhibition at 10 uM incubated for 48 hrs by SRB assay relative to control). Settings: read-out: GI.
Format: functional
With `NNc1nc(Nc2ccccc2)nc(Nc2ccc(S(N)(=O)=O)cc2)n1` the inhibition of growth at 10 µM was < 10%.
`COc1ccc(/C=N/Nc2nc(Nc3ccccc3)nc(Nc3ccc(S(N)(=O)=O)cc3)n2)cc1` gave an inhibition of growth at 10 µM of 26%.
`NS(=O)(=O)c1ccc(Nc2nc(N/N=C/c3ccc(F)cc3)nc(Nc3ccccc3)n2)cc1` was tested, and the inhibition of growth at 10 µM was 49%.

What follows are molecules tested on KM12 (assay: Anticancer activity against human KM12 cells assessed as cell growth inhibition at 10 uM incubated for 48 hrs by SRB assay relative to control). Settings: read-out: GI.
Format: functional
In the case of `NNc1nc(Nc2ccccc2)nc(Nc2ccc(S(N)(=O)=O)cc2)n1`, the inhibition of growth at 10 µM is reported as < 10%.
In the case of `COc1ccc(/C=N/Nc2nc(Nc3ccccc3)nc(Nc3ccc(S(N)(=O)=O)cc3)n2)cc1`, the inhibition of growth at 10 µM is reported as 25%.
`NS(=O)(=O)c1ccc(Nc2nc(N/N=C/c3ccc(F)cc3)nc(Nc3ccccc3)n2)cc1` gave an inhibition of growth at 10 µM of 69%.

What follows are molecules tested on MDA-MB-231 (assay: Anticancer activity against human MDA-MB-231 cells assessed as cell growth inhibition at 10 uM incubated for 48 hrs by SRB assay relative to control). Settings: read-out: GI.
Format: functional
`NNc1nc(Nc2ccccc2)nc(Nc2ccc(S(N)(=O)=O)cc2)n1` was tested, and the inhibition of growth at 10 µM was < 10%.
`COc1ccc(/C=N/Nc2nc(Nc3ccccc3)nc(Nc3ccc(S(N)(=O)=O)cc3)n2)cc1` gave an inhibition of growth at 10 µM of 32%.
With `NS(=O)(=O)c1ccc(Nc2nc(N/N=C/c3ccc(F)cc3)nc(Nc3ccccc3)n2)cc1` the inhibition of growth at 10 µM was 38%.

What follows are molecules tested on MOLT-4 (assay: Anticancer activity against human MOLT-4 cells assessed as cell growth inhibition at 10 uM incubated for 48 hrs by SRB assay relative to control). Settings: read-out: GI.
Format: functional
In the case of `NNc1nc(Nc2ccccc2)nc(Nc2ccc(S(N)(=O)=O)cc2)n1`, the inhibition of growth at 10 µM is reported as 81%.
Molecule `COc1ccc(/C=N/Nc2nc(Nc3ccccc3)nc(Nc3ccc(S(N)(=O)=O)cc3)n2)cc1` has an inhibition of growth at 10 µM of 55%.
For `NS(=O)(=O)c1ccc(Nc2nc(N/N=C/c3ccc(F)cc3)nc(Nc3ccccc3)n2)cc1`, the inhibition of growth at 10 µM was 78%.

Each molecule was assayed on A549 (assay: Anticancer activity against human A549 cells assessed as cell growth inhibition at 10 uM incubated for 48 hrs by SRB assay relative to control). Settings: read-out: GI.
Format: functional
In the case of `NNc1nc(Nc2ccccc2)nc(Nc2ccc(S(N)(=O)=O)cc2)n1`, the inhibition of growth at 10 µM is reported as < 10%.
`COc1ccc(/C=N/Nc2nc(Nc3ccccc3)nc(Nc3ccc(S(N)(=O)=O)cc3)n2)cc1` was tested, and the inhibition of growth at 10 µM was 12%.
In the case of `NS(=O)(=O)c1ccc(Nc2nc(N/N=C/c3ccc(F)cc3)nc(Nc3ccccc3)n2)cc1`, the inhibition of growth at 10 µM is reported as 92%.

What follows are molecules tested on SF-268 (assay: Anticancer activity against human SF-268 cells assessed as cell growth inhibition at 10 uM incubated for 48 hrs by SRB assay relative to control). Settings: read-out: GI.
Format: functional
For `NNc1nc(Nc2ccccc2)nc(Nc2ccc(S(N)(=O)=O)cc2)n1`, the inhibition of growth at 10 µM was < 10%.
`COc1ccc(/C=N/Nc2nc(Nc3ccccc3)nc(Nc3ccc(S(N)(=O)=O)cc3)n2)cc1` was tested, and the inhibition of growth at 10 µM was < 10%.
Work on `NS(=O)(=O)c1ccc(Nc2nc(N/N=C/c3ccc(F)cc3)nc(Nc3ccccc3)n2)cc1` yielded an inhibition of growth at 10 µM of 58%.
